The numbers were not newly measured in patent publication US20200229456A1, “Synergistic Formulation Including At Least One Gibberellin Compound and Salicyclic Acid” (Stoller Enterprises, Inc., priority 2018, published 2020), which cites them from elsewhere.

The subject of one series is tomatoes. The settings on record: GA3 at 0.1%, CaCl2 at 1.5%, SA at 0.4 mM.
Another series concerns banana slices. Particulars: GA3 applied exogenously on banana slices.
The next series has as its system Cavendish bananas. The settings on record: 300 ppm GA3 or 4 mM SA, versus other treatments.
For another series, the system named is Bananas. The settings on record: SA at either 0.5 mM or 1 mM.

`[Ca+2].[Cl-].[Cl-]` [CaCl2, calcium chloride]: the “shelf life of tomatoes” value with tomatoes is reported as “extended the shelf life”.
On to `C=C1C[C@]23C[C@@]1(O)CC[C@H]2[C@@]12C=C[C@H](O)[C@@](C)(C(=O)O1)[C@H]2[C@@H]3C(=O)O` [GA3, gibberellic acid], for which, in the series on banana slices, the “postponement of accumulation of sucrose” value is listed as 2 days and the “respiration rate or ethylene profile” value is recorded as “does not alter”. Further, the delay in ripening result in the series on Cavendish bananas is “more considerable delay in ripening”. In the series with tomatoes, the “shelf life of tomatoes” value was “extended the shelf life”.
As for `O=C(O)c1ccccc1O` [SA, Salicylic acid], in the series on Bananas, the fruit firmness entry is listed as “firmer fruits”, the respiration rates result is listed as “decrease in respiration rates” and the sugar content entry is given as “lower sugar content”. Further, the delay in ripening entry in the series with Cavendish bananas is “more considerable delay in ripening”. Moreover, in the series on tomatoes, the “shelf life of tomatoes” value is “extended the shelf life”.
